According to patent US20240158348A1, “HERBICIDAL CYCLIC AMIDES N-SUBSTITUTED WITH A HALOALKYLSULFONYLANILIDE GROUP” (FMC Corporation, priority 2021, published 2024):

What was measured:
Format in all cases: in vivo
[1] = tested on: ryegrass, Italian (Italian ryegrass, Lolium multiflorum); test: Test C postemergence, Italian ryegrass
Method in brief: (§1)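 Ratings run from 0, meaning no effect, up to 100, meaning complete control, judged by eye against untreated plants. Treatment was a directed soil spray before emergence or a postemergence spray on 2–10 cm seedlings, with evaluation 10 or 12 days later.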

[2] = tested on: pigweed, palmer (palmer amaranth, Amaranthus palmeri); test: Test C preemergence, palmer amaranth; conditions: 0 is no effect, 100 is complete control
Method in brief: as §1

[3] = tested on: horseweed (Erigeron canadensis); test: Test C postemergence, horseweed
Method in brief: as §1

[4] = tested on: goosegrass (Eleusine indica); test: Test C postemergence, goosegrass
Method in brief: as §1

[5] = tested on: corn (Zea mays); test: Test C postemergence, corn
[6] = tested on: soybean (Glycine max); test: Test C postemergence, soybean
[7] = tested on: ryegrass, Italian (Italian ryegrass, Lolium multiflorum); test: Test C preemergence, Italian ryegrass; conditions: 0 is no effect, 100 is complete control
Method in brief: as §1

[8] = tested on: blackgrass (Alopecurus myosuroides); test: Test C postemergence, blackgrass; conditions: 125 g ai/ha Postemergence; 0 is no effect, 100 is complete control
[9] = tested on: kochia (Bassia scoparia); test: Test C preemergence, kochia; conditions: 0 is no effect, 100 is complete control
Method in brief: as §1

[10] = tested on: ragweed (common ragweed, Ambrosia artemisiifolia); test: Test C postemergence, ragweed
Method in brief: as §1

[11] = tested on: oat, wild (wild oat, Avena fatua); test: Test C preemergence, wild oat; conditions: 0 is no effect, 100 is complete control
Method in brief: as §1

[12] = tested on: blackgrass (Alopecurus myosuroides); test: Test C preemergence, blackgrass; conditions: 0 is no effect, 100 is complete control
Text: Seeds of plant species selected from blackgrass (Alopecurus myosuroides), corn (Zea mays), foxtail, giant (giant foxtail, Setaria faberi), goosegrass (Eleusine indica), kochia (Bassia scoparia), oat, wild (wild oat, Avena fatua), pigweed, palmer (palmer amaranth, Amaranthus palmeri), ragweed (common ragweed, Ambrosia artemisiifolia), ryegrass, Italian (Italian ryegrass, Lolium multiflorum), soybean (Glycine max) and wheat (Triticum aestivum) were planted into a blend of loam soil and sand and treated preemergence with a directed soil spray using test chemicals formulated in a non-phytotoxic solvent mixture which included a surfactant.
At the same time, plants selected from these crop and weed species and also galium (catchweed bedstraw, Galium aparine) and horseweed (Erigeron canadensis) were planted in pots containing the same blend of loam soil and sand and treated with postemergence applications of test chemicals formulated in the same manner. Plants ranged in height from 2 to 10 cm and were in the one- to two-leaf stage for the postemergence treatment. Treated plants and untreated controls were maintained in a greenhouse for 10 or 12 days, after which time all treated plants were compared to untreated controls and visually evaluated for injury. Plant response ratings, summarized in Table A, are based on a 0 to 100 scale where 0 is no effect and 100 is complete control. A dash (-) response means no test result.

[13] = tested on: barnyardgrass (Echinochloa crusgalli); test: Test D flooded paddy test, barnyardgrass; set-up: key: 0 = no effect, 100 = complete control; conditions: 250 g ai/ha, Flood; applied to paddy water at 2-leaf stage; visual rating after 13 days; scale 0 (no effect) to 100 (complete control)
Method in brief: (§2)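 Visual response scores run 0 (no effect) to 100 (complete control), judged against controls 13 days after treatment. Compounds were added to paddy water 3 cm deep over soil, around plants at the 2-leaf stage kept in a greenhouse.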

[14] = tested on: ragweed (common ragweed, Ambrosia artemisiifolia); test: Test C preemergence, ragweed; conditions: 0 is no effect, 100 is complete control
Method in brief: (§3)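 Plants grown in a sand and loam soil blend received the formulated test chemicals either as a preemergence soil-directed spray or postemergence at 2 to 10 cm height. After 10 or 12 greenhouse days, injury was assessed visually, with 100 meaning complete control.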

[15] = tested on: sedge, umbrella (small-flower umbrella sedge, Cyperus difformis); test: Test D flooded paddy test, umbrella sedge; set-up: key: 0 = no effect, 100 = complete control; conditions: 250 g ai/ha, Flood; applied to paddy water at 2-leaf stage; visual rating after 13 days; scale 0 (no effect) to 100 (complete control)
Method in brief: as §2

[16] = tested on: foxtail, giant (giant foxtail, Setaria faberi); test: Test C preemergence, giant foxtail; conditions: 0 is no effect, 100 is complete control
Method in brief: as §1

[17] = tested on: wheat (Triticum aestivum); test: Test C preemergence, wheat; conditions: 0 is no effect, 100 is complete control
[18] = tested on: oat, wild (wild oat, Avena fatua); test: Test C postemergence, wild oat
[19] = tested on: foxtail, giant (giant foxtail, Setaria faberi); test: Test C postemergence, giant foxtail
[20] = tested on: galium (catchweed bedstraw, Galium aparine); test: Test C postemergence, galium
[21] = tested on: goosegrass (Eleusine indica); test: Test C preemergence, goosegrass; conditions: 0 is no effect, 100 is complete control
Method in brief: as §3

[22] = tested on: soybean (Glycine max); test: Test C preemergence, soybean; conditions: 0 is no effect, 100 is complete control
Method in brief: as §1

[23] = tested on: wheat (Triticum aestivum); test: Test C postemergence, wheat
Method in brief: as §1

[24] = tested on: pigweed, palmer (palmer amaranth, Amaranthus palmeri); test: Test C postemergence, palmer amaranth
Method in brief: as §1

[25] = tested on: kochia (Bassia scoparia); test: Test C postemergence, kochia
Method in brief: as §1

[26] = tested on: corn (Zea mays); test: Test C preemergence, corn; conditions: 0 is no effect, 100 is complete control
Method in brief: as §3

[27] = tested on: blackgrass (Alopecurus myosuroides); test: Test C postemergence, blackgrass; conditions: 31 g ai/ha Postemergence; visual injury, 0 to 100 scale (0 no effect, 100 complete control)
Method in brief: as §1

[28] = tested on: rice (Oryza sativa); test: Test D flooded paddy test, rice; set-up: key: 0 = no effect, 100 = complete control; conditions: 250 g ai/ha, Flood; applied to paddy water at 2-leaf stage; visual rating after 13 days; scale 0 (no effect) to 100 (complete control)
Method in brief: as §2

[29] = tested on: ducksalad (Heteranthera limosa); test: Test D flooded paddy test, ducksalad; set-up: key: 0 = no effect, 100 = complete control; conditions: 250 g ai/ha, Flood; applied to paddy water at 2-leaf stage; visual rating after 13 days; scale 0 (no effect) to 100 (complete control)
Method in brief: as §2

[30] = 31 g ai/ha Postemergence, visual injury, 0 to 100 scale (0 no effect, 100 complete control)
[31] = 125 g ai/ha Postemergence, 0 is no effect, 100 is complete control

SMILES: CC(=O)N(c1cc(N2CCC(OC3CC3)C2=O)c(C)cc1C)S(=O)(=O)C(F)(F)F (stereo not shown) [Compound 17]
- Ryegrass, Italian plant response rating [1, 30]: 60
- Plant response rating (0 to 100 scale), Ryegrass, Italian [1, 31]: 90
- Plant response rating (0 to 100 scale), Pigweed, Palmer ([2]; 31 g ai/ha Preemergence): 80
- Plant response rating (0 to 100 scale), Pigweed, Palmer ([2]; 125 g ai/ha Preemergence): 100
- Horseweed plant response rating [3, 30]: 70
- Plant response rating (0 to 100 scale), Horseweed [3, 31]: 100
- Goosegrass plant response rating [4, 30]: 90
- Plant response rating (0 to 100 scale), Goosegrass [4, 31]: 90
- Corn plant response rating [5, 30]: 90
- Plant response rating (0 to 100 scale), Corn [5, 31]: 90
- Soybean plant response rating [6, 30]: 60
- Plant response rating (0 to 100 scale), Soybean [6, 31]: 80
- Plant response rating (0 to 100 scale), Ryegrass, Italian ([7]; 31 g ai/ha Preemergence): 100
- Plant response rating (0 to 100 scale), Ryegrass, Italian ([7]; 125 g ai/ha Preemergence): 100
- Plant response rating (0 to 100 scale), Blackgrass [8]: 80
- Plant response rating (0 to 100 scale), Kochia ([9]; 31 g ai/ha Preemergence): 80
- Plant response rating (0 to 100 scale), Kochia ([9]; 125 g ai/ha Preemergence): 100
- Ragweed plant response rating [10, 30]: 70
- Plant response rating (0 to 100 scale), Ragweed [10, 31]: 90
- Plant response rating (0 to 100 scale), Oat, Wild ([11]; 31 g ai/ha Preemergence): 90
- Plant response rating (0 to 100 scale), Oat, Wild ([11]; 125 g ai/ha Preemergence): 100
- Plant response rating (0 to 100 scale), Blackgrass ([12]; 31 g ai/ha Preemergence): 80
- Plant response rating (0 to 100 scale), Blackgrass ([12]; 125 g ai/ha Preemergence): 90
- Plant response rating, Barnyardgrass [13]: 85
- Plant response rating (0 to 100 scale), Ragweed ([14]; 31 g ai/ha Preemergence): 80
- Plant response rating (0 to 100 scale), Ragweed ([14]; 125 g ai/ha Preemergence): 90
- Plant response rating, Sedge, Umbrella [15]: 95
- Plant response rating (0 to 100 scale), Foxtail, Giant ([16]; 31 g ai/ha Preemergence): 90
- Plant response rating (0 to 100 scale), Foxtail, Giant ([16]; 125 g ai/ha Preemergence): 100
- Plant response rating (0 to 100 scale), Wheat ([17]; 31 g ai/ha Preemergence): 30
- Plant response rating (0 to 100 scale), Wheat ([17]; 125 g ai/ha Preemergence): 100
- Oat, Wild plant response rating [18, 30]: 30
- Plant response rating (0 to 100 scale), Oat, Wild [18, 31]: 70
- Foxtail, Giant plant response rating [19, 30]: 90
- Plant response rating (0 to 100 scale), Foxtail, Giant [19, 31]: 90
- Galium plant response rating [20, 30]: 90
- Plant response rating (0 to 100 scale), Galium [20, 31]: 100
- Plant response rating (0 to 100 scale), Goosegrass ([21]; 31 g ai/ha Preemergence): 100
- Plant response rating (0 to 100 scale), Goosegrass ([21]; 125 g ai/ha Preemergence): 100
- Plant response rating (0 to 100 scale), Soybean ([22]; 31 g ai/ha Preemergence): 80
- Plant response rating (0 to 100 scale), Soybean ([22]; 125 g ai/ha Preemergence): 100
- Wheat plant response rating [23, 30]: 70
- Plant response rating (0 to 100 scale), Wheat [23, 31]: 70
- Pigweed, Palmer plant response rating [24, 30]: 40
- Plant response rating (0 to 100 scale), Pigweed, Palmer [24, 31]: 90
- Kochia plant response rating [25, 30]: 80
- Plant response rating (0 to 100 scale), Kochia [25, 31]: 90
- Plant response rating (0 to 100 scale), Corn ([26]; 31 g ai/ha Preemergence): 70
- Plant response rating (0 to 100 scale), Corn ([26]; 125 g ai/ha Preemergence): 90
- Blackgrass plant response rating [27]: 70
- Plant response rating, Rice [28]: 15
- Plant response rating, Ducksalad [29]: 95
